“And” between values parts separate entries of the source, which are not always exact repeats. Identical values can stand only once. Records with an inconclusive call do not appear. *1 amine or outer side, *2 acyl side, *3 side chain or, on linkers, in order; H or OH if unused. Where a SMILES comes first, the peptide text is derived from it. Bridges are numbered along the chain shown (N, C = ends). Roman numbers before positions name the chains, in order. [ ]: non-standard residue; d: D form. Actinocin(9to1) = Cc1c2oc3c(C)ccc(C(=O)[*:1])c3nc-2c(C(=O)[*:2])c(N)c1=O; aThr = C[C@H](O)[C@H](N)C(=O)O; NMeV = CN[C@H](C(=O)O)C(C)C; Sar = CNCC(=O)O

The assay concerns mice, P1798 lymphosarcoma sc, survival or tumor weight T/C. The assay is described as follows: NCI In Vivo Anticancer Drug Screen. Data for tumor model P1798 Lymphosarcoma (subcutaneous) in unknown mice. The procedure: The antitumor activity of compounds was measured in mice bearing transplantable tumors. Survival or tumor size were measured and the results are expressed as the measurement made in the treated group (T) divided by the measurement made in the vehicle treated control group (C). The tumor model used in this assay is P1798 Lymphosarcoma (subcutaneous) in unknown mice

Where [1] appears, read: endpoint: mean tumor weight, dose: 50.0 mg/kg/injection, schedule: Q01DX010 (ip), vehicle: carboxymethylcellulose (CMC), higher = larger tumour.

`NC(Cc1ccc(N(CCCl)CCCl)cc1)C(=O)O` (centres undefined): the T/C reads like this: (endpoint: mean tumor weight, dose: 0.5 mg/kg/injection, schedule: Q01DX010 (ip), vehicle: saline, higher = larger tumour) 86 % of control; (endpoint: mean tumor weight, dose: 0.63 mg/kg/injection, schedule: Q01DX010 (ip), vehicle: carboxymethylcellulose (CMC), higher = larger tumour) 117 % of control; (endpoint: mean tumor weight, dose: 1.0 mg/kg/injection, schedule: Q01DX010 (ip), vehicle: saline, higher = larger tumour) 67 % of control; (endpoint: mean tumor weight, dose: 1.25 mg/kg/injection, schedule: Q01DX010 (ip), vehicle: carboxymethylcellulose (CMC), higher = larger tumour) 110 % of control; (endpoint: mean tumor weight, dose: 1.25 mg/kg/injection, schedule: Q01DX010 (ip), vehicle: saline, higher = larger tumour) 89 % of control; (endpoint: mean tumor weight, dose: 2.0 mg/kg/injection, schedule: Q01DX010 (ip), vehicle: saline, higher = larger tumour) 77 % of control. The T/C is 60 % of control (endpoint: mean tumor weight, dose: 4.0 mg/kg/injection, schedule: Q01DX010 (ip), vehicle: saline, higher = larger tumour); 40 % of control (endpoint: mean tumor weight, dose: 5.0 mg/kg/injection, schedule: Q01DX010 (ip), vehicle: carboxymethylcellulose (CMC), higher = larger tumour); 36 % of control (endpoint: mean tumor weight, dose: 5.0 mg/kg/injection, schedule: Q01DX010 (ip), vehicle: saline, higher = larger tumour); 5 % of control (endpoint: mean tumor weight, dose: 10.0 mg/kg/injection, schedule: Q01DX010 (ip), vehicle: saline, higher = larger tumour).

Consider `O=c1[nH]c(=O)n(C2CC(O)C(CO)O2)cc1F` (centres undefined), for which the T/C was 42 % of control (endpoint: mean tumor weight, dose: 25.0 mg/kg/injection, schedule: Q01DX010 (ip), vehicle: carboxymethylcellulose (CMC), higher = larger tumour) and 30 % of control under setting [1].

For the compound `C[C@]12C=CC(=O)C=C1CC[C@@H]1[C@@H]2C(=O)C[C@@]2(C)[C@H]1CC[C@]2(O)C(=O)CO`, the T/C runs as follows: (endpoint: mean tumor weight, dose: 0.31 mg/kg/injection, schedule: Q01DX010 (sc), vehicle: steriod suspending solution, higher = larger tumour) 81 % of control; (endpoint: mean tumor weight, dose: 0.62 mg/kg/injection, schedule: Q01DX010 (sc), vehicle: steriod suspending solution, higher = larger tumour) 124 % of control; (endpoint: mean tumor weight, dose: 3.1 mg/kg/injection, schedule: Q01DX010 (sc), vehicle: steriod suspending solution, higher = larger tumour) 82 % of control; (endpoint: mean tumor weight, dose: 5.0 mg/kg/injection, schedule: Q01DX010 (sc), vehicle: steriod suspending solution, higher = larger tumour) 59 % of control; (endpoint: mean tumor weight, dose: 6.25 mg/kg/injection, schedule: Q01DX010 (sc), vehicle: steriod suspending solution, higher = larger tumour) 99 % of control; (endpoint: mean tumor weight, dose: 10.0 mg/kg/injection, schedule: Q01DX010 (sc), vehicle: steriod suspending solution, higher = larger tumour) 83 % of control. Further, the T/C is 105 % of control (endpoint: mean tumor weight, dose: 10.0 mg/kg/injection, schedule: Q01DX010 (sc), vehicle: water, higher = larger tumour); 68 % of control and 74 % of control (endpoint: mean tumor weight, dose: 20.0 mg/kg/injection, schedule: Q01DX010 (sc), vehicle: steriod suspending solution, higher = larger tumour); 108 % of control (endpoint: mean tumor weight, dose: 20.0 mg/kg/injection, schedule: Q01DX010 (sc), vehicle: water, higher = larger tumour); 100 % of control (endpoint: mean tumor weight, dose: 40.0 mg/kg/injection, schedule: Q01DX010 (sc), vehicle: water, higher = larger tumour); 87 % of control (endpoint: mean tumor weight, dose: 60.0 mg/kg/injection, schedule: Q01DX001 (sc), vehicle: steriod suspending solution, higher = larger tumour); 34 % of control (endpoint: mean tumor weight, dose: 120.0 mg/kg/injection, schedule: Q01DX001 (sc), vehicle: steriod suspending solution, higher = larger tumour). Besides, the T/C (endpoint: median survival time, dose: 2.34 mg/kg/injection, schedule: Q01DX029 (ip), vehicle: saline, higher = longer survival) was 82 % of control; the T/C (endpoint: median survival time, dose: 4.67 mg/kg/injection, schedule: Q01DX025 (ip), vehicle: saline, higher = longer survival) is 96 % of control; the T/C (endpoint: median survival time, dose: 9.35 mg/kg/injection, schedule: Q01DX025 (ip), vehicle: saline, higher = longer survival) was 100 % of control; the T/C (endpoint: median survival time, dose: 9.35 mg/kg/injection, schedule: Q01DX029 (ip), vehicle: saline, higher = longer survival) was 98 % of control; the T/C (endpoint: median survival time, dose: 9.37 mg/kg/injection, schedule: Q01DX029 (ip), vehicle: saline, higher = longer survival) is 89 % of control; the T/C (endpoint: median survival time, dose: 18.7 mg/kg/injection, schedule: Q01DX025 (ip), vehicle: saline, higher = longer survival) is 88 % of control. Also, the T/C is 101 % of control (endpoint: median survival time, dose: 18.75 mg/kg/injection, schedule: Q01DX010 (ip), vehicle: saline, higher = longer survival); 75 % of control (endpoint: median survival time, dose: 37.5 mg/kg/injection, schedule: Q01DX025 (ip), vehicle: saline, higher = longer survival); 153 % of control (endpoint: median survival time, dose: 75.0 mg/kg/injection, schedule: Q01DX010 (sc), vehicle: saline, higher = longer survival); 59 % of control (endpoint: median survival time, dose: 75.0 mg/kg/injection, schedule: Q01DX025 (ip), vehicle: saline, higher = longer survival); 47 % of control (endpoint: median survival time, dose: 150.0 mg/kg/injection, schedule: Q01DX010 (sc), vehicle: saline, higher = longer survival); 46 % of control (endpoint: median survival time, dose: 150.0 mg/kg/injection, schedule: Q01DX025 (ip), vehicle: saline, higher = longer survival). In addition, the T/C by setting is: (endpoint: median survival time, dose: 150.0 mg/kg/injection, schedule: Q01DX029 (ip), vehicle: saline, higher = longer survival) 42 % of control; (endpoint: median survival time, dose: 300.0 mg/kg/injection, schedule: Q01DX010 (sc), vehicle: saline, higher = longer survival) 39 % of control; (endpoint: median survival time, dose: 600.0 mg/kg/injection, schedule: Q01DX010 (sc), vehicle: saline, higher = longer survival) 34 % of control.

For `CCOC(N)=O`, the T/C (endpoint: mean tumor weight, dose: 250.0 mg/kg/injection, schedule: Q01DX010 (ip), vehicle: saline, higher = larger tumour) is 70 % of control and 76 % of control.

Turning to `CO[C@H](C(=O)[C@@H](O)[C@@H](C)O)[C@@H]1Cc2cc3cc(OC4CC(OC5CC(O)C(O)C(C)O5)C(O)C(C)O4)c(C)c(O)c3c(O)c2C(=O)[C@H]1OC1CC(OC2CC(OC3CC(C)(O)C(O)C(C)O3)C(O)C(C)O2)C(O)C(C)O1` (some centres undefined), the T/C (endpoint: mean tumor weight, dose: 0.06 mg/kg/injection, schedule: Q01DX011 (ip), vehicle: saline, higher = larger tumour) is 89 % of control and 102 % of control.

As for `Cc1c2oc3c(C)ccc(C(=O)N[C@@H]4C(=O)N[C@H](C(C)C)C(=O)N5CCC[C@H]5C(=O)N(C)CC(=O)N(C)[C@@H](C(C)C)C(=O)O[C@H]4C)c3nc-2c(C(=O)N[C@@H]2C(=O)N[C@H](C(C)C)C(=O)N3CCC[C@H]3C(=O)N(C)CC(=O)N(C)[C@@H](C(C)C)C(=O)O[C@H]2C)c(N)c1=O` (I: [aThr][dV]P[Sar][NMeV] / II: [aThr][dV]P[Sar][NMeV]; ester I:1-I:C, II:1-II:C; linker I:N-II:N via Actinocin(9to1)), the T/C (endpoint: mean tumor weight, dose: 2.0 micrograms/kg/injection, schedule: Q01DX010 (ip), vehicle: saline, higher = larger tumour) is 117 % of control and the T/C (endpoint: mean tumor weight, dose: 20.0 micrograms/kg/injection, schedule: Q01DX010 (ip), vehicle: saline, higher = larger tumour) is 46 % of control.

On to `O=C(Nc1ccc(C2=NCCN2)cc1)c1ccc(C(=O)Nc2ccc(C3=NCCN3)cc2)cc1`, for which the T/C was 67 % of control (endpoint: mean tumor weight, dose: 8.0 mg/kg/injection, schedule: Q01DX010 (ip), vehicle: saline, higher = larger tumour); 65 % of control (endpoint: mean tumor weight, dose: 16.0 mg/kg/injection, schedule: Q01DX010 (ip), vehicle: saline, higher = larger tumour); 109 % of control (endpoint: mean tumor weight, dose: 32.0 mg/kg/injection, schedule: Q01DX010 (ip), vehicle: saline, higher = larger tumour); 49 % of control (endpoint: mean tumor weight, dose: 64.0 mg/kg/injection, schedule: Q01DX010 (ip), vehicle: saline, higher = larger tumour).

As for `CC(C)(c1ccccc1)c1ccc(O)cc1`, the T/C by setting is: under setting [1], 91 % of control; (endpoint: mean tumor weight, dose: 100.0 mg/kg/injection, schedule: Q01DX010 (ip), vehicle: carboxymethylcellulose (CMC), higher = larger tumour) 109 % of control; (endpoint: mean tumor weight, dose: 200.0 mg/kg/injection, schedule: Q01DX010 (ip), vehicle: carboxymethylcellulose (CMC), higher = larger tumour) 108 % of control.

Regarding `CC(=O)Nc1ccc2nc3ccc(NC(C)=O)cc3[n+](-c3ccccc3)c2c1`, the T/C is, setting by setting: (endpoint: mean tumor weight, dose: 25.0 mg/kg/injection, schedule: Q01DX010 (ip), vehicle: saline, higher = larger tumour) 56 % of control; (endpoint: mean tumor weight, dose: 50.0 mg/kg/injection, schedule: Q01DX010 (ip), vehicle: saline, higher = larger tumour) 21 % of control; (endpoint: mean tumor weight, dose: 100.0 mg/kg/injection, schedule: Q01DX010 (ip), vehicle: saline, higher = larger tumour) 12 % of control; (endpoint: mean tumor weight, dose: 200.0 mg/kg/injection, schedule: Q01DX010 (ip), vehicle: saline, higher = larger tumour) 3 % of control.

Consider `O=c1cnn(C2OC(CO)C(O)C2O)c(=O)[nH]1` (centres undefined), for which the T/C (endpoint: mean tumor weight, dose: 125.0 mg/kg/injection, schedule: Q01DX010 (ip), vehicle: water, higher = larger tumour) is 93 % of control; the T/C (endpoint: mean tumor weight, dose: 250.0 mg/kg/injection, schedule: Q01DX010 (ip), vehicle: water, higher = larger tumour) was 67 % of control; the T/C (endpoint: mean tumor weight, dose: 500.0 mg/kg/injection, schedule: Q01DX010 (ip), vehicle: water, higher = larger tumour) was 77 % of control; the T/C (endpoint: mean tumor weight, dose: 1000.0 mg/kg/injection, schedule: Q01DX010 (ip), vehicle: water, higher = larger tumour) was 75 % of control.

In the case of `CC(=O)[C@H]1CC[C@H]2[C@@H]3C[C@H](C)C4=CC(=O)CC[C@]4(C)[C@H]3C(=O)C[C@]12C`, the T/C reads like this: (endpoint: mean tumor weight, dose: 12.5 mg/kg/injection, schedule: Q01DX010 (sc), vehicle: carboxymethylcellulose (CMC), higher = larger tumour) 101 % of control; (endpoint: mean tumor weight, dose: 25.0 mg/kg/injection, schedule: Q01DX010 (sc), vehicle: carboxymethylcellulose (CMC), higher = larger tumour) 100 % of control; (endpoint: mean tumor weight, dose: 50.0 mg/kg/injection, schedule: Q01DX010 (sc), vehicle: carboxymethylcellulose (CMC), higher = larger tumour) 115 % of control; (endpoint: mean tumor weight, dose: 100.0 mg/kg/injection, schedule: Q01DX010 (sc), vehicle: carboxymethylcellulose (CMC), higher = larger tumour) 112 % of control; (endpoint: mean tumor weight, dose: 200.0 mg/kg/injection, schedule: Q01DX010 (sc), vehicle: carboxymethylcellulose (CMC), higher = larger tumour) 117 % of control; (endpoint: mean tumor weight, dose: 400.0 mg/kg/injection, schedule: Q01DX010 (sc), vehicle: carboxymethylcellulose (CMC), higher = larger tumour) 108 % of control.

The values above are taken from PubChem BioAssay AID290 (DTP/NCI, 2004).
